The test system of one data set is Mice L-M cells. Nature of the data set: Inducing activities of TNF in vitro (cytotoxicity of serum from treated mice). It is filed as cell-based, mice (ICR male mice serum; mice L-M cells). The following applies: Mus musculus, iv; 10 μg via tail vein, serum 90 mins after; L-M cells 48 hrs; read-out: Cytotoxicities. The protocol:
(2) Inducing activities of TNF in vitro
Inducing activity of TNF in vitro was measured by the following test system.
Corye parvum (manufactured by Ribi Immuno Chem. Research Inc.) was administered in ICR male mice 6-weeks old through the tail vein as priming agent. Ten days later, the compounds of the present invention (10 μg) were administered through tail vein as eliciting agent. 90 mins after the administration, blood was collected from the hearts, and blood serums were separated.
Mice L-M cells (10^4 /100 μl/well) suspended in a mixture of the diluted serum solution (100 μl/well) and RPMI 1640 cultivating solution (10% FEBS and 0.2% glucose; manufactured by Nissui Pharmaceutical Co.) were cultivated in an atmosphere of a mixed gas of 5% CO2 -[…], for 48 hrs at 37° C., after adding ^3 H-tymidine taken (0.5 μCi/20 μl/well). Amounts of ^3 H-tymidine taken into cells during the cultivation were measured.
Inducing activities of TNF were measured by cytotoxicity calculated as follows: [formula]

The test system of another data set is lympha cells. Nature of the data set: Mitogenic activity in vitro (Blastogenic index). It is filed as cell-based, C3H/He male mice. The following applies: Mus musculus, Lymphocyte. The protocol: (1) Mitogenic activity in vitro
Mitogenic activity means activity of activating mitogenic cell division, and in this test system, the amount of tymidine taken into lympha cells was measured and a ratio determined against a blank control call (Blastogenic index) was calculated.
For example, adding the compound prepared in example 1(c) to the test system induced 30 times the amount of tymidine taken into the lympha cells versus the control.
The amounts were measured by density of a radiolabel.
Mytogenic activity in vitro was measured by the following method (See Procedure Method of Immunoexperiment pp 315 published by Japan Immunology Society).
C3H/He male mice 6 weeks old were killed by bloodletting, and their spleens were isolated and homogenized. Homogenizing liquids were filtered with gauze, and suspending cells were prepared with PBS solution. After washing, lymphacytes fractions were gathered with lympholight M. Lymphacytes were suspended in RPMI 1640 cultivation solution (10% FEBS), and the solution was divided into 5×10^5 cells/180 μl/wells. Ten times concentration of the terminal concentration (1 μg/ml) of the compounds of the present invention were added with 20 μl portions to each of the wells.
After cultivation, ^3 H-tymidine 0.5 μCi/20 μl was added to the each cells. Cultivation was continued at 37° C. for another 24 hrs, and amounts of ^3 H-tymidine taken into the cells were measured. Mitogenic activities were calculated as by Blastogenic index in as follows. [formula]

The nature of data set [1]: Acute toxicity (LD50), intravenous in mice. The settings on record: mouse, in vivo. Here is the method: For example, the values of LD50 of the compound prepared in example 1(c) was more than 300 mg/kg animal body weight by intravenous administration in mice.
For another data set, the system named is Meth-A sarcoma. The experiment in a line: Anti-tumor effect on Balb/C mice inoculated with Meth-A Sarcoma. The format is in vivo, female Balb/C mice. The settings on record: for Apperarent tumor weight: g ± standard error; for Survival period: iv tail vein Day 7, 9, 12, day ± standard error. Here is the method:
(1) Anti-tumor effect on Balb/C mice inocudlated with Meth-A Sarcoma
Anti-tumor effect was measured by the following procedure.
Tumor cells which had been maintained in ascites of Balb/C mouse generation after generation was used. One group is consisting of eight female Balb/C mice. Meth-A sarcoma tumor (1×10^5 cells/0.05 ml) was inoculated into left side of female mice of 7-week old (body weight: 18-20 g). Seven day after, when tumor size came to 6~9 mm, test compound was administered into tail vein first (day 7) and then administered two times (total three times: Day 7, 9, 12). Dose of test compound is 3 and 10 mg/kg or 3, 10 and 30 mg/kg and each test compound solution volume was 10 ml/kg. Anti-tumor effect is estimated by survival period (from inoculation day to death day) and tumor apparent weight. [formula] Test results about survival period and tumor appearent weight are shown in the following Tables II(1) and II(2), respectively.
In experiments, statistic analysis was done with unpaired Student's t(two tailed)-test. […] P values lower than 0.05 were judged to be significant.

The mark [2] stands for this setting: terminal concentration 1 μg/ml, ratio of 3H-tymidine uptake vs blank control, read-out: Blastgenic Index.

Where two headings read alike, the source gives them in different places.

In the case of `CCCCCCCCCCCCCC(=O)OC(CCCCCCCCCCC)CC(=O)N[C@H]1COC[C@@H](OS(=O)(=O)O)[C@@H]1OC(=O)CCCCCCCCCCCCC` (single isomer, unassigned) [3(b), 2-deoxy-2-[3-tetradecanoyloxytetradecanoyl]amino-3-O-tetradecanoyl-4-O-sulfo-1,5-anhydro-D-xylitol], the cytotoxicity at 0.01 mg in the data set with Mice L-M cells came to 30.2%. For the same molecule, in the data set on lympha cells (setting [2]), the fold induction at 1 µg/mL stood at 13.7.
Consider `CCCCCCCCCCCC(CC(=O)N[C@H]1COC[C@@H](OS(=O)(=O)O)[C@@H]1OC(=O)CCCCCCCCc1ccccc1)OC(=O)CCCCCCCCc1ccccc1` (single isomer, unassigned) [Example 3, 2-deoxy-2-[3-(9-phenylnonanoyl)oxytetradecanoyl]amino-3-O-(9-phenylnonanoyl)-4-O-sulfo-1,5-anhydro-D-xylitol], for which, in the data set on Mice L-M cells, the cytotoxicity at 0.01 mg stood at 50.7%.
Turning to `CCCCCCCCCCC[C@@H](CC(=O)N[C@H]1C(O)O[C@H](CO)[C@@H](OS(=O)(=O)O)[C@@H]1OC(=O)CCCCCCCCc1ccccc1)OC(=O)CCCCCCCCc1ccccc1` (stereo partly drawn) [1(c), 2-deoxy-2-[3S-(9-phenylnonanoyloxy)tetradecanoyl]amino-3-O-(9-phenylnonanoyl)-4-O-sulfo-D-glucopyranose], in the data set on Mice L-M cells, the cytotoxicity at 0.01 mg was 86%. The fold induction at 1 µg/mL in the data set with lympha cells (compound added to the test system, 1 μg/ml, read-out: amount of tymidine taken into the lympha cells versus the control) was 30; in the data set with lympha cells (setting [2]), 30. Moreover, the LD50 in data set [1] was greater than 300 mg/kg. The Apperarent tumor weight in the data set with Meth-A sarcoma (3 mg/kg iv, Day 7) was 0.200 ± 0.074 g; with Meth-A sarcoma (3 mg/kg iv, Day 10) it was 0.240 ± 0.118 g; with Meth-A sarcoma (3 mg/kg iv, Day 13), 0.314 ± 0.206 g; in the data set on Meth-A sarcoma (3 mg/kg iv, Day 16), 0.580 ± 0.412 g; in the data set with Meth-A sarcoma (10 mg/kg iv, Day 7), 0.199 ± 0.044 g; in the data set on Meth-A sarcoma (10 mg/kg iv, Day 10) it was 0.156 ± 0.084 g. Also, the Apperarent tumor weight worked out at 0.120 ± 0.099 g in the data set on Meth-A sarcoma (10 mg/kg iv, Day 13) and 0.208 ± 0.253 g in the data set on Meth-A sarcoma (10 mg/kg iv, Day 16). In addition, the “effect on prolongation of life” value with Meth-A sarcoma (at the dose of 10 mg/kg) is “significant effect”. The “effect on tumore regression” value in the data set on Meth-A sarcoma (at the dose of 10 mg/kg) is recorded as “significant effect”. Moreover, the values for the Survival period with Meth-A sarcoma (dose 3 (mg/kg)) and in the data set on Meth-A sarcoma (dose 10 (mg/kg)) were 46.8 ± 6.3 days and 62.8 ± 18.8 days, respectively.
On to `CCCCCCCCCCC[C@@H](CC(=O)N[C@H]1C(O)O[C@H](CO)[C@@H](OS(=O)(=O)O)[C@@H]1OC(=O)CCCCCCCCCc1ccccc1)OC(=O)CCCCCCCCCc1ccccc1` (stereo partly drawn) [1(d), 2-deoxy-2-[3S-(10-phenyldecanoyloxy)tetradecanoyl]amino-3-O-(10-phenyldecanoyl)-4-O-sulfo-D-glucopyranose], for which, in the data set on Mice L-M cells, the cytotoxicity at 0.01 mg stood at 95%. Further, the fold induction at 1 µg/mL with lympha cells (setting [2]) was found to be 28.
Regarding `CCCCCCCCCCC[C@H](CC(=O)N[C@H]1C(O)O[C@H](CO)[C@@H](OS(=O)(=O)O)[C@@H]1OC(=O)CCCCCCCCc1ccccc1)OC(=O)CCCCCCCCc1ccccc1` (stereo partly drawn) [1(h), 2-deoxy-2-[3R-(9-phenylnonanoyloxy)tetradecanoyl]amino-3-O-(9-phenylnonanoyl)-4-O-sulfo-D-glucopyranose], in the data set on Mice L-M cells, the cytotoxicity at 0.01 mg came to 81%. For the same molecule, in the data set with lympha cells (setting [2]), the fold induction at 1 µg/mL is 37.
The matching figures for `CCCCCCCCCCC[C@@H](CC(=O)N[C@H]1C(O)O[C@H](CO)[C@@H](OS(=O)(=O)O)[C@@H]1OC(=O)CCCCCCCCc1ccc(Cl)cc1)OC(=O)CCCCCCCCc1ccc(Cl)cc1` (stereo partly drawn) [1(j), 2-deoxy-2-[3S-[9-(4-chlorophenyl)nonanoyloxy]tetradecanoyl]amino-3-O-[9-(4-chlorophenyl)nonanoyl]-4-O-sulfo-D-glucopyranose]: 69% and 25.
On to `O=C(C[C@H](CCCCCCc1ccccc1)OC(=O)CCCCCCCCc1ccccc1)N[C@H]1C(O)O[C@H](CO)[C@@H](OS(=O)(=O)O)[C@@H]1OC(=O)CCCCCCCCc1ccccc1` (stereo partly drawn) [1(r), 2-deoxy-2-[3S-(9-phenylnonanoyloxy)-9-phenylnonanoyl]amino-3-O-(9-phenylnonanoyl)-4-O-sulfo-D-glucopyranose], for which, in the data set with Mice L-M cells, the cytotoxicity at 0.01 mg was 86%. Further, the fold induction at 1 µg/mL with lympha cells (setting [2]) was determined as 17.
For `CCCCCCCCCCC[C@H](CC(=O)N[C@H]1CO[C@H](CO)[C@@H](OS(=O)(=O)O)[C@@H]1OC(=O)CCCCCCCCc1ccccc1)OC(=O)CCCCCCCCc1ccccc1` [1(s), 2-deoxy-2-[3R-(9-phenylnonanoyloxy)tetradecanoyl]amino-3-O-(9-phenylnonanoyl)-4-O-sulfo-1,5-anhydro-D-glucitol] the same measures were 100% and 58.
With `CCCCCCCCCCCCCC(=O)O[C@H]1[C@H](OS(=O)(=O)O)[C@@H](CO)OC(O)[C@@H]1NC(=O)c1ccc(OCCCCCCCCCC)c(OCCCCCCCCCC)c1` (stereo partly drawn) [Example 4, 2-deoxy-2-(3,4-didecyloxybenzoyl)amino-3-O-tetradecanoyl-4-O-sulfo-D-glycopyranose], the cytotoxicity at 0.01 mg in the data set with Mice L-M cells turned out to be 20%. Also, the fold induction at 1 µg/mL with lympha cells (setting [2]) was determined as 27.7. The Apperarent tumor weight in the data set with Meth-A sarcoma (3 mg/kg iv, Day 7) is 0.212 ± 0.042 g; with Meth-A sarcoma (3 mg/kg iv, Day 10), 0.469 ± 0.169 g; with Meth-A sarcoma (3 mg/kg iv, Day 13) it was 0.650 ± 0.162 g; in the data set with Meth-A sarcoma (3 mg/kg iv, Day 16), 1.004 ± 0.434 g; in the data set on Meth-A sarcoma (10 mg/kg iv, Day 7) it was 0.205 ± 0.022 g; in the data set with Meth-A sarcoma (10 mg/kg iv, Day 10), 0.361 ± 0.056 g. Further, the Apperarent tumor weight in the data set on Meth-A sarcoma (10 mg/kg iv, Day 13) was 0.455 ± 0.116 g; with Meth-A sarcoma (10 mg/kg iv, Day 16) it was 0.846 ± 0.233 g. The “effect on prolongation of life” value in the data set with Meth-A sarcoma (at the dose of 3 mg/kg) was “significant effect”. In addition, the “effect on tumore regression” value in the data set on Meth-A sarcoma (at the dose of 3 mg/kg) is “significant effect”. The Survival period is 48.5 ± 8.7 days in the data set on Meth-A sarcoma (dose 3 (mg/kg)) and 46.6 ± 7.2 days in the data set with Meth-A sarcoma (dose 10 (mg/kg)).

As a reminder, the LD50 is the dose at which mortality reaches 50%.

These data come from USRE36385E, “Glucopyranose derivatives” (Ono Pharmaceutical Co., Ltd., priority 1985, dated 1999).
